Assay results from patent US20060128721A1, “Novel formulations of opioid-based treatments of pain comprising substituted 1,4-di-piperidin-4-yl-piperazine derivatives” (priority 2003, published 2006).
Like-named read-outs stand apart in the source and are kept apart here.

Columns and labels:
[1] = tested on: loperamide-induced retching; test: Antiemetic effects: loperamide-induced retching in ferrets; format: in vivo; conditions: ferrets
Description: The antiemetic effects have been determined using the loperamide-induced retching model (i.e. retching induced by an opioid) in ferrets. To exclude species differences in antiemetic activiey, both compounds have also been tested for antiemetic activity against apomorphine in dogs.
Antagonism of emesis induced by the peripherally selective opioid loperamide (0.31 mg/kg, s.c.) was studied over a 1 h-period starting immediately after the emetic challenge in ferrets pretreated with test compound or solvent. In control animals pre-treated with solvent, loperamide induced pronounced retching (mean±SD: 95±39 counts; n=[…]) and, to a lesser extent, vomiting (5±4).

[2] = target: T1, cloned human h-NK1 receptors expressed in CHO cells (Homo sapiens, UniProt P25103); test: Binding experiment for h-NK1 receptors ([3H]-Substance P displacement); conditions: read-out: h-NK1 pIC50 (converted)
T1 construct: expressed in transfected cells; host or cells: CHO cells
T1 sequence (P25103 whole entry): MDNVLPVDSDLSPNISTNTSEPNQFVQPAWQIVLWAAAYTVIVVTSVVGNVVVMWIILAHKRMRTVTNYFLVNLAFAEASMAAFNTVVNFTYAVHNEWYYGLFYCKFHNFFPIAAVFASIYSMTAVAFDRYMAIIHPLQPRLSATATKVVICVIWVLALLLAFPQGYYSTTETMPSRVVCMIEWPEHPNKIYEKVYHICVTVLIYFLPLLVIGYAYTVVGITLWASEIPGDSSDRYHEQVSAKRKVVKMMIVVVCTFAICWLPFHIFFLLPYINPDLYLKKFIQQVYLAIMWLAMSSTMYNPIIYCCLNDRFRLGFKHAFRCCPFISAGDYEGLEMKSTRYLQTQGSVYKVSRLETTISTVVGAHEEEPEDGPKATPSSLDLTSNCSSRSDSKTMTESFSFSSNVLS

[3] = target: T2, cloned human h-NK3 receptors expressed in CHO cells (Homo sapiens, UniProt P29371); test: Binding experiment for h-NK3 receptors ([3H]-SR-142801 displacement); conditions: [3H]-SR-142801, CHO cells; read-out: h-NK3 pIC50 (converted)
T2 construct: expressed in transfected cells; host or cells: CHO cells
T2 sequence (P29371 1-465): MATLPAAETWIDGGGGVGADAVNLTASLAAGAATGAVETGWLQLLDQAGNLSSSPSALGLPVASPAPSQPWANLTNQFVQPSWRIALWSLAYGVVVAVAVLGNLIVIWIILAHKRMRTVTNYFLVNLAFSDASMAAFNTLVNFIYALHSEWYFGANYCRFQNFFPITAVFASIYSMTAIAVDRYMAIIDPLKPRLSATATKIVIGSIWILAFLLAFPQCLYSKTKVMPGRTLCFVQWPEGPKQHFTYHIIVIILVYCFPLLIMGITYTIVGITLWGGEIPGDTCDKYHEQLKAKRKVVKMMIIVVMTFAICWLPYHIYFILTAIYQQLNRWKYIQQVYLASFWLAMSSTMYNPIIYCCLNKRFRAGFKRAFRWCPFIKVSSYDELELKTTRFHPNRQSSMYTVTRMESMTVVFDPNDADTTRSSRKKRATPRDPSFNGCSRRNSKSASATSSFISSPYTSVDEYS
Description: (§1) The compounds according to the invention were investigated for interaction with various neurotransmitter receptors, ion channels and transporter binding sites using the radioligand binding technique. Membranes from tissue homogenates or from cells, expressing the receptor or transporter of interests, were incubated with a radioactively labelled substance ([^3H]- or [^125I] ligand) to label a particular receptor. […] Following incubation, labelled membranes were harvested and rinsed with excessive cold buffer to remove non-bound radioactivity by rapid filtration under suction. Membrane bound radioactivity was counted in a scintillation counter and results were expressed in counts per minute (cpm).
(§2) The compounds were dissolved in DMSO and tested at 10 concentrations ranging from 10^−10 to 10^−5 M.
(§3) The ability of the compounds according to the invention to displace [^3H]-Substance P from cloned human h-NK1 receptors expressed in CHO cells, to displace [^3H]-SR-48968 from cloned human h-NK2 receptors expressed in Sf9 cells, and to displace [^3H]-SR-142801 from cloned human h-NK3 receptors expressed in CHO cells was evaluated.

[4] = target: T3, cloned human h-NK2 receptors expressed in Sf9 cells (Homo sapiens, UniProt P21452); test: Binding experiment for h-NK2 receptors ([3H]-SR-48968 displacement); conditions: [3H]-SR-48968, Sf9 cells; read-out: h-NK2 pIC50 (converted)
T3 construct: expressed in transfected cells; host or cells: Sf9 cells
T3 sequence (P21452 1-398): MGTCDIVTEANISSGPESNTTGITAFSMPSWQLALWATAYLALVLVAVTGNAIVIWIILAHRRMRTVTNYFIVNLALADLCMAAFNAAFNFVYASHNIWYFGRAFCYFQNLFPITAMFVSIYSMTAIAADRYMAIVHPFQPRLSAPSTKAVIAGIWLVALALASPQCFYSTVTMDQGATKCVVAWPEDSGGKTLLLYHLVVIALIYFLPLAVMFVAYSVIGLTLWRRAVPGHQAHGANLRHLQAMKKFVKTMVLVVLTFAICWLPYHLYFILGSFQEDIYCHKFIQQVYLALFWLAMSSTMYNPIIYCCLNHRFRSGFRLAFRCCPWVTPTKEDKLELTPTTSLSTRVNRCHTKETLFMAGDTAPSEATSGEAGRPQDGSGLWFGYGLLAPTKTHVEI
Description: as §1, §2, §3

O=C(c1ccccc1)N1CCC(N2CCN(C3CCN(C(=O)c4cc(C(F)(F)F)cc(C(F)(F)F)c4)C(Cc4ccccc4)C3)CC2)CC1 (stereo not drawn) [Compound 3, {4-[4-(1-benzoyl-piperidin-4-yl)-piperazin-1-yl]-2-benzyl-piperidin-1-yl}-(3,5-bis-trifluoromethyl-phenyl)-methanone]
ratio of oral ED50 (at time of peak effect) over subcutaneous ED50 (obtained at 1 h) [1]: 1.4-1.8
ED50 ([1]; blockade (=0 retches), intravenous route, 1 h after administration, read-out: ED50 for blockade of loperamide-induced retching): 0.88 mg/kg
ED50 ([1]; blockade (=0 retches), oral route, 1 h after administration, read-out: ED50 for blockade of loperamide-induced retching): 1.65 mg/kg
ED50 ([1]; blockade (=0 retches), oral route, 2 h after administration, read-out: ED50 for blockade of loperamide-induced retching): 2.18 mg/kg
ED50 ([1]; blockade (=0 retches), oral route, 4 h after administration, read-out: ED50 for blockade of loperamide-induced retching): 1.25 mg/kg
ED50 ([1]; blockade (=0 retches), oral route, 8 h after administration, read-out: ED50 for blockade of loperamide-induced retching): 2.89 mg/kg
ED50 ([1]; blockade (=0 retches), oral route, 16 h after administration, read-out: ED50 for blockade of loperamide-induced retching): 2.89 mg/kg
ED50 ([1]; blockade (=0 retches), oral route, 32 h after administration, read-out: ED50 for blockade of loperamide-induced retching): 5 mg/kg
ED50 ([1]; blockade (=0 retches), oral route, 64 h after administration, read-out: ED50 for blockade of loperamide-induced retching): > 10 mg/kg
ED50 ([1]; inhibition (<20 retches), intravenous route, 1 h after administration, read-out: ED50 for inhibition of loperamide-induced retching): 0.39 mg/kg
ED50 ([1]; inhibition (<20 retches), oral route, 1 h after administration, read-out: ED50 for inhibition of loperamide-induced retching): 0.72 mg/kg
ED50 ([1]; inhibition (<20 retches), oral route, 2 h after administration, read-out: ED50 for inhibition of loperamide-induced retching): 0.96 mg/kg
ED50 ([1]; inhibition (<20 retches), oral route, 4 h after administration, read-out: ED50 for inhibition of loperamide-induced retching): 1.25 mg/kg
ED50 ([1]; inhibition (<20 retches), oral route, 8 h after administration, read-out: ED50 for inhibition of loperamide-induced retching): 1.25 mg/kg
ED50 ([1]; inhibition (<20 retches), oral route, 16 h after administration, read-out: ED50 for inhibition of loperamide-induced retching): 1.26 mg/kg
ED50 ([1]; inhibition (<20 retches), oral route, 32 h after administration, read-out: ED50 for inhibition of loperamide-induced retching): 3.81 mg/kg
ED50 ([1]; inhibition (<20 retches), oral route, 64 h after administration, read-out: ED50 for inhibition of loperamide-induced retching): > 10 mg/kg
ED50 ([1]; oral administration, time of peak effect, read-out: graphically estimated peak-effect ED50 for blockade of retching (=0 retches)): 1.4 mg/kg
duration of action ([1]; oral, at 4 times the peak-effect dose): 32 h
Ratio p.o./s.c. of ED50 for blockade of retching ([1]; p.o. (−2 h) over s.c. (−1 h)): 2.3
ED50 ([1]; iv, read-out: ED50 for blockade of retching 1 h after i.v. injection, i.v., 1 h): 0.88 mg/kg
ED50 ([1]; iv, read-out: ED50 for inhibition of retching 1 h after i.v. injection, i.v., 1 h): 0.39 mg/kg
ED50 ([1]; read-out: ED50 (95% confidence limits) for blockade of loperamide-induced retching, p.o. route (−2 h), loperamide 0.31 mg/kg s.c., 2 h after oral administration, blockade = 0 retches): 2.18 mg/kg
ED50 ([1]; read-out: graphically estimated peak-effect ED50 for inhibition of retching (<20 retches), oral administration, time of peak effect): 1 mg/kg
ED50 ([1]; sc, read-out: ED50 for blockade of loperamide-induced retching, loperamide 0.31 mg/kg s.c., 1 h after subcutaneous administration, blockade = 0 retches): 0.96 mg/kg
ED50 ([1]; sc, blockade (=0 retches), subcutaneous route, 1 h after administration, read-out: ED50 for blockade of loperamide-induced retching): 0.96 mg/kg
ED50 ([1]; sc, inhibition (<20 retches), subcutaneous route, 1 h after administration, read-out: ED50 for inhibition of loperamide-induced retching): 0.55 mg/kg
ED50 ([1]; sc, s.c., 1 h, <20 retches, read-out: ED50 for inhibition of retching one hour after s.c. injection): 0.55 mg/kg
ED50 ([1]; sc, s.c., 1 h, =0 retches, read-out: ED50 for complete blockade of retching one hour after s.c. injection): 0.96 mg/kg
IC50 [2]: 1.26 nM
IC50 [3]: 251 nM
IC50 [4]: 501 nM

O=C(c1cc(C(F)(F)F)cc(C(F)(F)F)c1)N1CCC(N2CCN(C3CCN(Cc4nc5ccccc5[nH]4)CC3)CC2)CC1Cc1ccccc1 (stereo not drawn) [Compound 7]
melting point: 135 °C
IC50 [2]: 7.94 nM
IC50 [3]: 1000 nM
IC50 [4]: 1000 nM
